Data taken from US20250345392A1, “ANNEXIN A1 LIQUID PHARMACEUTICAL COMPOSITION” (ResoTher Pharma A/S, priority 2022, published 2025).
Like-named read-outs stand apart in the source and are kept apart here. Ends that are not written are not given here.

Experiment: Clinical test in humans, three 30-min i.v. infusions 8 hours apart, plasma PK
Assay type: in vivo
Details: human, three 30-min i.v. infusions 8 h apart; for AUC / Cmax / Tmax / AUC(0-t) / half-life: iv; for AUC(0-t): read-out: AUC0-24; for half-life: after the last infusion
Method: A total of 8 subjects were included in each group. In each group, 6 subjects received the active treatment and 2 received the placebo. The active treatment was as follows in each group: • Group 9 received three 8 hours apart 30-min Peptide 1 intravenous (i.v.) infusions, wherein each i.v. infusion corresponded to a dose of 50 μg/kg. • Group 10 received three 8 hours apart 30-min Peptide 1 intravenous (i.v.) infusions, wherein each i.v. infusion corresponded to a dose of 100 μg/kg. • Group 11 received three 8 hours apart 30-min Peptide 1 intravenous (i.v.) infusions, wherein each i.v. infusion corresponded to a dose of 140 μg/kg. • Group 12 received three 8 hours apart 30-min Peptide 1 intravenous (i.v.) infusions, wherein each i.v. infusion corresponded to a dose of 200 μg/kg. • Group 13 received three 8 hours apart 30-min Peptide 1 intravenous (i.v.) infusions, wherein each i.v. infusion corresponded to a dose of 250 μg/kg.
The tested liquid pharmaceutical composition has a pH of 8.2-8.4, and comprises the following: • i) 5 mg/ml of Peptide 1, • ii) 4% (w/w) mannitol, • iii) 1% (w/w) sucrose, • iv) 0.01% (w/w) Polysorbate-80, • v) 10 mM glycyl-glycine, and • vi) sterile water for injection.
Venous whole blood samples were collected from all subjects.
Plasma samples were analyzed for Peptide 1 using validated Liquid chromatography—Tandem Mass spectrometry (LC-MS/MS) methods by Charles River Laboratories (CRL).
Derivation of PK parameters were carried out by PhinC Development using Phoenix WinNonlin® (Version Phoenix 8.1—Certara—Princeton—USA). A non-compartmental analysis (NCA) approach was chosen.
For the calculation of the PK parameters and characteristics the following rules were applied: • All the plasma concentrations validated by the bioanalytical laboratory and provided to the pharmacokinetics were used for the PK analysis. • The theoretical PK blood sampling time points were used. • At time points in the lag-time between time zero and the first concentration equal or above limit of quantification (LOQ), concentrations below the LOQ (BLQ) were set to zero (0). • Concentrations BLQ between 2 concentrations equal or above LOQ were considered as missing. • Trailing concentrations (at time point between time of last measurable concentrations and time of last blood sample) BLQ were not used in calculations. • For 3 infusions regimen, each infusion was considered separately and BLQ rules were applied for each infusion. […] If the pre-dose value was greater than 5% of Cmax, the subject was dropped from all statistical evaluations.
AUC0-tau was only calculated if there were at least 3 concentrations above LOQ. • AUC0-24: The area under the plasma concentration-time curve from time zero (pre-dose) to 24 h was calculated as the sum of the 3 AUC0-tau: AUC0-24=AUC0-tau1+AUC0-tau2+AUC0-tau3. • AUC0-t: The area under the concentration-time curve from time zero (pre-dose) to the time of last quantifiable concentration was calculated using a linear trapezoidal method after each administration (AUC0-t1, AUC0-t2 and AUC0-t3, where AUC0-t1 was AUC0-t corresponded to the AUC from pre-dose to the last measurable quantifiable concentration following the first infusion). AUC0-t was only calculated if there were at least 3 concentrations above LOQ. • ke: The terminal plasma elimination rate-constant was estimated from log-linear regression analysis of the terminal phase of the plasma concentration-time profile. The number of points included in the terminal phase was determined by visual inspection of the semi-log plots of the plasma concentration-time profiles. A minimum of 3 data points, including the last measured data point and excluding Cmax, had to be available for the regression. The correlation coefficient for the goodness of the fit of the regression line through the data points (r^2) had to be 0.8000 or higher, for the value to be considered reliable. […]

Substance: AMVSEFLKQAWFIENEEQEYVQTLKSSKGGPGSAVSPYPTFNPSSDV-NH2 [Peptide 1]
- AUC (in vivo, 250 ug/kg, 250 μg/kg each, mean, read-out: AUC0-t3): 2430 ng·h/mL
- AUC (in vivo, 250 ug/kg, 250 μg/kg each, mean, read-out: AUC0-tau1): 2630 ng·h/mL
- AUC (in vivo, 250 ug/kg, 250 μg/kg each, mean, read-out: AUC0-tau2): 2440 ng·h/mL
- AUC (in vivo, 250 ug/kg, 250 μg/kg each, mean, read-out: AUC0-tau3): 2480 ng·h/mL
- Cmax (in vivo, 250 ug/kg, 250 μg/kg each, mean, read-out: Global Cmax): 2330 ng/mL
- Tmax (in vivo, 250 ug/kg, 250 μg/kg each, median, read-out: Global tmax): 8.5 h
- Tmax (in vivo, 250 ug/kg, 250 μg/kg each, median, read-out: tmax3): 16.5 h
- AUC (in vivo, 50 μg/kg each, GM, read-out: AUC0-t1): 417 ng·h/mL
- AUC (in vivo, 50 μg/kg each, GM, read-out: AUC0-tau1): 509 ng·h/mL
- AUC (in vivo, 50 μg/kg each, mean, read-out: AUC0-tau2): 517 ng·h/mL
- AUC (in vivo, 50 μg/kg each, mean, read-out: AUC0-tau3): 541 ng·h/mL
- AUC(0-t) (in vivo, 100 μg/kg each, GM): 3600 ng·h/mL
- AUC (in vivo, 100 μg/kg each, GM, read-out: AUC0-t1): 982 ng·h/mL
- AUC (in vivo, 100 μg/kg each, GM, read-out: AUC0-t2): 1120 ng·h/mL
- AUC (in vivo, 100 μg/kg each, GM, read-out: AUC0-t3): 1090 ng·h/mL
- AUC (in vivo, 100 μg/kg each, mean, read-out: AUC0-t1): 993 ng·h/mL
- AUC (in vivo, 100 μg/kg each, mean, read-out: AUC0-tau1): 1120 ng·h/mL
- AUC (in vivo, 100 μg/kg each, mean, read-out: AUC0-tau2): 1240 ng·h/mL
- AUC (in vivo, 100 μg/kg each, mean, read-out: AUC0-tau3): 1260 ng·h/mL
- Cmax (in vivo, 100 μg/kg each, mean, read-out: Global Cmax): 1020 ng/mL
- half-life (in vivo, 140 μg/kg each, GM): 1.93 h
- AUC(0-t) (in vivo, 140 μg/kg each, GM): 5310 ng·h/mL
- AUC (in vivo, 140 μg/kg each, GM, read-out: AUC0-t3): 1570 ng·h/mL
- AUC (in vivo, 140 μg/kg each, mean, read-out: AUC0-tau3): 1710 ng·h/mL
- half-life (in vivo, 200 μg/kg each, GM): ~2 h
- AUC (in vivo, 200 μg/kg each, GM, read-out: AUC0-t1): 2490 ng·h/mL
- AUC (in vivo, 200 μg/kg each, GM, read-out: AUC0-tau1): 2590 ng·h/mL
- AUC (in vivo, 200 μg/kg each, GM, read-out: AUC0-tau2): 2750 ng·h/mL
- AUC (in vivo, 200 μg/kg each, GM, read-out: AUC0-tau3): 2710 ng·h/mL
- Cmax (in vivo, 200 μg/kg each, mean, read-out: Global Cmax): 2370 ng/mL
- half-life (in vivo, 250 μg/kg each, GM): ~2 h
- AUC (in vivo, 250 μg/kg each, GM, read-out: AUC0-t1): 2500 ng·h/mL
- AUC (in vivo, 250 μg/kg each, GM, read-out: AUC0-t2): 2300 ng·h/mL
- AUC (in vivo, 250 μg/kg each, GM, read-out: AUC0-tau3): 2460 ng·h/mL
- Tmax (in vivo, all subjects except one (time of the end of infusion), read-out: tmax after each administration): 0.5 h
- Cmax (plasma, 50 μg/kg, 50 μg/kg each, GM, read-out: Cmax1): 403 ng/mL
- Cmax (plasma, 50 μg/kg, 50 μg/kg each, mean, read-out: Cmax2): 395 ng/mL
- Cmax (plasma, 100 μg/kg, 100 μg/kg each, GM, read-out: Cmax1): 877 ng/mL
- Cmax (plasma, 100 μg/kg, 100 μg/kg each, GM, read-out: Cmax3): 958 ng/mL
- Cmax (plasma, 100 μg/kg, 100 μg/kg each, mean, read-out: Cmax1): 883 ng/mL
- Cmax (plasma, 100 ug/kg, 100 μg/kg each, mean, read-out: Cmax2): 977 ng/mL
- Cmax (plasma, 140 μg/kg, 140 μg/kg each, GM, read-out: Cmax1): 1310 ng/mL
- Cmax (plasma, 140 μg/kg, 140 μg/kg each, GM, read-out: Cmax3): 1220 ng/mL
- Cmax (plasma, 140 μg/kg, 140 μg/kg each, mean, read-out: Cmax1): 1340 ng/mL
- Cmax (plasma, 200 μg/kg, 200 μg/kg each, GM, read-out: Cmax3): 2130 ng/mL
- Cmax (plasma, 200 μg/kg, 200 μg/kg each, mean, read-out: Cmax1): 2190 ng/mL
- Cmax (plasma, 200 μg/kg, 200 μg/kg each, mean, read-out: Cmax2): 2050 ng/mL
- Cmax (plasma, 250 μg/kg, 250 μg/kg each, GM, read-out: Cmax1): 1890 ng/mL
- Cmax (plasma, 250 μg/kg, 250 μg/kg each, GM, read-out: Cmax2): 1800 ng/mL
- Cmax (plasma, 250 μg/kg, 250 μg/kg each, GM, read-out: Cmax3): 1780 ng/mL
- Cmax (plasma, 250 μg/kg, 250 μg/kg each, mean, read-out: Cmax1): 1960 ng/mL
- Cmax2 (50 μg/kg each, GM): 391 ng/mL
- Cmax3 (50 μg/kg each, GM): 396 ng/mL
- tmax1 (50 μg/kg each, GM): 0.50 h
- tmax2 (50 μg/kg each, GM): 8.50 h
- Cmax1 (50 μg/kg each, mean): 406 ng/mL
- tmax1 (50 μg/kg each, median): 0.50 h
- tmax2 (50 μg/kg each, median): 8.50 h
- tmax3 (50 μg/kg each, median): 16.50 h
- Cmax2 (100 μg/kg each, GM): 971 ng/mL
- tmax1 (100 μg/kg each, GM): 0.50 h
- tmax2 (100 μg/kg each, GM): 8.50 h
- tmax3 (100 μg/kg each, GM): 16.50 h
- Cmax3 (100 μg/kg each, mean): 970 ng/mL
- tmax1 (100 μg/kg each, median): 0.50 h
- tmax2 (100 μg/kg each, median): 8.50 h
- Cmax2 (140 μg/kg each, GM): 1360 ng/mL
- tmax1 (140 μg/kg each, GM): 0.50 h
- tmax2 (140 μg/kg each, GM): 8.47 h
- tmax3 (140 μg/kg each, GM): 16.50 h
- Cmax2 (140 μg/kg each, mean): 1390 ng/mL
- Cmax3 (140 μg/kg each, mean): 1240 ng/mL
- tmax1 (140 μg/kg each, median): 0.50 h
- tmax2 (140 μg/kg each, median): 8.50 h
- AUC0-tau3 (200 μg/kg each, GM): 2774.47 ng·h/mL
- Cmax1 (200 μg/kg each, GM): 2170 ng/mL
- Cmax2 (200 μg/kg each, GM): 2020 ng/mL
- tmax1 (200 μg/kg each, GM): 0.50 h
- tmax2 (200 μg/kg each, GM): 8.50 h
- tmax3 (200 μg/kg each, GM): 16.47 h
- Cmax3 (200 μg/kg each, mean): 2170 ng/mL
- tmax1 (200 μg/kg each, median): 0.50 h
- tmax2 (200 μg/kg each, median): 8.50 h
- tmax2 (250 μg/kg each, GM): 8.54 h
- tmax3 (250 μg/kg each, GM): 16.44 h
- Cmax2 (250 μg/kg each, mean): 1930 ng/mL
- Cmax3 (250 μg/kg each, mean): 1800 ng/mL
- tmax1 (250 μg/kg each, median): 0.50 h
- tmax2 (250 μg/kg each, median): 8.50 h
